Test results from publication PMC8838850, “Synthesis, Antimicrobial, Anti-Virulence and Anticancer Evaluation of New 5(4H)-Oxazolone-Based Sulfonamides” (Molecules, 2022).
Values after ≈ are worked out from the molar mass of the structure shown.

Assays:
S. aureus = experiment: Assay of protease production (casein substrate); format: cell-based, Staphylococcus aureus; settings: sub-MIC
Experimental: The effect of compounds 5, 7 and 10 on the production of protease was evaluated using casein substrate as described earlier. Briefly, overnight cultures of P. aeruginosa and S. aureus were cultivated in LB broth in the presence or absence of compounds 5, 7 and 10 at ½ MIC for 24 h at 37 °C. The supernatants were collected, mixed (1:1) with 0.05 M casein in phosphate buffer (2%) and NaOH (0.1 M) at pH 7.0, and incubated for 15 min at 37 °C. The reaction was stopped by adding 2 mL of 0.4 M trichloroacetic acid for 30 min at 25 °C. Any precipitates were removed, and the optical densities were detected at 660 nm. The assays were performed in triplicate and the obtained optical densities of tested strains treated with compounds 5, 7 and 10 were expressed as mean ± standard error of percentage change from untreated tested strains control (positive control) and LB (negative control). The protease inhibition percentages were calculated: (O.D control—O.D tested compounds)/O.D control.

S. aureus ATCC 6538 = experiment: Biofilm formation assay (crystal violet, light microscopy); format: cell-based, Staphylococcus aureus; settings: sub-MIC (½ MIC), crystal violet method
Experimental: (§1) Bacterial virulence is regulated via a quorum sensing (QS) system in an inducer/receptor manner. Diminishing bacterial virulence is an advantageous strategy to decrease the development of bacterial resistance. In this direction, anti-virulence and anti-QS activities have been explored in several studies as reviewed. The ability of P. aeruginosa or S. aureus to form biofilms was assayed in the absence or presence of tested compounds at sub-MIC. […] The experiment was conducted in triplicate and a one-way ANOVA test was employed to test the statistical significance using Graphpad Prism 8 software. The results were significant statistically where p values < 0.05. Moreover, microscopic visualization of biofilm under the effect of tested compounds was also performed by light microscopy. Representative images for the inhibitory effects on S. aureus and P. aeruginosa biofilm formation are shown (Figure 3C,D). The microscopic images show a marked reduction in both the thickness of and surface area covered by the biofilms in presence of the tested compound.
(§2) In order to evaluate the ability of the tested compounds to inhibit the biofilm formation, a strong biofilm forming P. aeruginosa ATCC 47,085 [47, 66] and S. aureus ATCC 6538 [67] strains were used. As described earlier, suspensions of tested strains were prepared from overnight cultures in TSB and their optical densities were adjusted to OD600 of 0.4 (1×10^8 CFU/mL). Aliquots of 10 μL of the suspensions were added to 1 mL amounts of fresh TSB with or without sub-MICs of tested compounds. […] The non-adherent cells were removed, the wells were washed with sterile PBS, and left to dry. The attached biofilm forming cells were fixed with methanol for 25 min and stained with 1% crystal violet for 30 min. The excess dye was washed out and the crystal violet staining adhered biofilm forming cells were eluted by glacial acetic acid (33%). The experiment was conducted in triplicate and the absorbance was measured at 590 nm. The absorbances of tested strains treated with different compounds were expressed as mean ± standard error of percentage change from untreated tested strains control. The percentages of biofilm inhibition were calculated employing the following formula: (absorbance of control—absorbance in presence of tested compounds)/absorbance of control.

P. aeruginosa = experiment: Quantification of pyocyanin pigment; format: cell-based, Pseudomonas aeruginosa; settings: sub-MIC
Experimental: The ability of selected compounds 5, 7 and 10 at sub-MIC to reduce the P. aeruginosa pyocyanin pigment production was estimated as described earlier. P. aeruginosa overnight cultures were prepared and diluted in LB broth at 600 nm (O.D0.4), and 10 μL of the bacterial suspensions were added to 1mL broth tubes containing, or not, tested drugs at sub-MIC. After incubation for 48 h at 37 °C, the tubes were centrifuged and the pyocyanin in the supernatant was assayed spectrophotometrically at 691 nm by a Biotek spectrofluorometer (Biotek, Winooski, VT, USA). The experiment was repeated in triplicate, and the pyocyanin absorbances in the presence of tested compounds were expressed as mean ± standard error of percentage change from untreated controls. The percentages of pigment production were calculated using the formula: (absorbance of control − absorbance in presence of tested compounds)/absorbance of control.

[1] = system: P. aeruginosa ATCC 47,085; experiment: Biofilm formation assay (crystal violet, light microscopy); format: cell-based, Pseudomonas aeruginosa; settings: sub-MIC (½ MIC), crystal violet method
Experimental: as §1, §2

Panc-1 = experiment: SRB cellular proliferation assay; format: cell-based, human; settings: Homo sapiens, Panc-1 cells, mean ± SD (n = 3), read-out: IC50
Experimental: (§3) The pancreatic human cancer cell lines BxPC-3 and Panc-1, the human hepatocellular carcinoma (HepG-2), and the normal immortalized pancreatic cell line HPDE, that were used in this study, were obtained from the American Type Culture Collection (Rockville, USA). Cell lines were cultured and treated with the tested compounds or dimethyl sulfoxide (DMSO) as previously described. Cells were cultivated in DMEM medium (Invitrogen, Carlsbad, CA, USA), supplemented with streptomycin, penicillin and fetal bovine serum (FCS) (Invitrogen, Carlsbad, CA, USA). The sulforhodamine B (SRB) assay was employed to assess the anti-proliferative effects of tested compounds on cancer cells. Cell lines were incubated and regularly treated with DMSO or increasing doses of tested compounds for 48 h. The cells were fixed with 10% trichloroacetic acid and stained with SRB fluorescent dye for 30 min. Then, the bounded SRB dye to cellular proteins was dissolved in 10 mM Tris base after washing excess dye with 1% acetic acid. The absorbance was measured at 510 nm in a reader (Biotek, Winooski, VT, USA).

HepG-2 = experiment: SRB cellular proliferation assay; format: cell-based, human; settings: Homo sapiens, HepG2, HepG-2 cells, mean ± SD (n = 3), read-out: IC50
Experimental: as §3

BxPC-3 = experiment: SRB cellular proliferation assay; format: cell-based, human; settings: Homo sapiens, BxPC-3 cells, mean ± SD (n = 3), read-out: IC50
Experimental: as §3

With `Cc1ccc(S(=O)(=O)Nc2ccccc2C2=N/C(=C/c3ccccc3)C(=O)O2)cc1` [Compound 9a, (E)-N-(2-(4-Benzylidene-5-oxo-4,5-dihydrooxazol-2-yl)phenyl)-4-methylbenzenesulfonamide] the Production of protease (S. aureus) was “significantly reduced the production of protease”, the “Inhibition of biofilm formation” value (S. aureus ATCC 6538) was “highest abilities to inhibit biofilm formation” and the melting point was 214 to 216 °C. For the same compound, the “Production of pigment pyocyanin” value (P. aeruginosa) was “significantly decreased the production”, the “Inhibition of biofilm formation” value [1] was “highest abilities to inhibit biofilm formation” and the IC50 (Panc-1) was 11.9 ± 0.76 µg/mL (≈ 28.6 µM). It also gave an IC50 (HepG-2) of 11 ± 2.39 µg/mL (≈ 26.2 µM) and an IC50 (BxPC-3) of 14.4 ± 0.73 µg/mL (≈ 34.4 µM).

With `COc1ccc(/C=C2/N=C(c3ccccc3NS(=O)(=O)c3ccc(C)cc3)OC2=O)cc1` [Compound 9b, (E)-N-(2-(4-(4-Methoxybenzylidene)-5-oxo-4,5-dihydrooxazol-2-yl)phenyl)-4-methylbenzenesulfonamide] the Production of protease (S. aureus) was “significantly reduced the production of protease”, the “Inhibition of biofilm formation” value (S. aureus ATCC 6538) was “highest abilities to inhibit biofilm formation” and the “Production of pigment pyocyanin” value (P. aeruginosa) was “significantly decreased the production”. The “Inhibition of biofilm formation” value [1] was “highest abilities to inhibit biofilm formation”, the IC50 (Panc-1) was 13.6 ± 1.16 µg/mL (≈ 30.4 µM) and the IC50 (HepG-2) was 8.53 ± 1.1 µg/mL (≈ 19 µM). For the same compound, the IC50 (BxPC-3) was 14.9 ± 4.19 µg/mL (≈ 33.2 µM).

For `Cc1ccc(S(=O)(=O)Nc2ccccc2C2=N/C(=C/c3ccc([N+](=O)[O-])cc3)C(=O)O2)cc1` [Compound 9f, (E)-4-Methyl-N-(2-(4-(4-nitrobenzylidene)-5-oxo-4,5-dihydrooxazol-2-yl)phenyl)benzenesulfonamide], the Production of protease (S. aureus) was “significantly reduced the production of protease”, the “Inhibition of biofilm formation” value (S. aureus ATCC 6538) was “highest abilities to inhibit biofilm formation” and the melting point was 250 to 252 °C. The “Production of pigment pyocyanin” value (P. aeruginosa) was “significantly decreased the production”, the “Inhibition of biofilm formation” value [1] was “highest abilities to inhibit biofilm formation” and the IC50 (Panc-1) was 12.6 ± 1.2 µg/mL (≈ 27.2 µM). It also gave an IC50 (HepG-2) of 6.39 ± 1.25 µg/mL (≈ 13.8 µM) and an IC50 (BxPC-3) of 14.2 ± 1.87 µg/mL (≈ 30.6 µM).
